Usually IC50 stands for the concentration needed to halve the response being measured.

Structures are written as SMILES. Where two headings read alike, the source gives them in different places.

These results are taken from paper PMC11069232, “NB compounds are potent and efficacious FOXM1 inhibitors in high-grade serous ovarian cancer cells” (Journal of Ovarian Research, 2024).

Common to all, as to assay type: cell-based, human
The subject of one assay is FT282-C11 cells. In words: CyQuant cell viability assay, FT282-C11 (immortalized FTE control). The settings on record: for Efficacy: % loss of cell viability at maximum tested concentration; for Fold HGSOC cell selectivity: IC50 in FT282-C11 divided by the averaged IC50 values of CAOV3 and OVCAR4 cells. On the procedure:
(§1) Cells were seeded into 96-well plates and treated with serial dilutions with the designated compounds for 72 h. Medium was then removed from the wells, and the cells were frozen at -80 °C for storage. After thawing, cell viability was analyzed using the CyQUANT™ Cell Proliferation Assay for cells in culture (Invitrogen, ThermoFisher Scientific, Waltham, MA, USA), according to manufacturer’s instructions. The CyQuant assay utilizes a DNA binding fluorescent dye, and the signal is proportional to the number of live cells, which thus reflects the effect of drug treatment on both cell proliferation and cytotoxicity. To integrate these two measures (proliferation and cytotoxicity) into one simple term, we refer to CyQuant data as a measure of cell viability. Fluorescence intensity was measured using POLARstar OPTIMA microplate multi-detection plate reader (BMG LabTech, Cary, NC, USA) with settings specified by the manufacturer’s instructions.
To investigate the cancer cell selectivity of FOXM1 inhibitors, we utilized the immortalized (FTE) cell line FT282-C11 as non-malignant, cell of origin matched control. […] We tested a sub-set of FOXM1 inhibitors, including the three NB compounds and the two most widely used FOXM1 inhibitors, thiostrepton and FDI-6.

In a further assay the test system is HGSOC cells. As to the kind of experiment: CyQuant cell viability assay, HGSOC cells (CAOV3 and OVCAR4), summary in words. The settings on record: summary of Table 3. Here is the method:
as §1
We investigated the effect of eight previously reported FOXM1 inhibitors on HGSOC cell viability. We utilized CAOV3 and OVCAR4 cells, which are validated to model HGSOC both in vitro and in vivo [38, 39], and measured the effect on cell viability using CyQuant assays. The data are summarized in Table 3 (drugs ordered alphabetically).

For a further assay, the system named is CAOV3 cells. As to the kind of experiment: CyQuant cell viability assay, CAOV3. The note with it: for Efficacy: % loss of cell viability at maximum tested concentration. Here is the method: as §1
In a further assay the test system is OVCAR4 cells. As to the kind of experiment: CyQuant cell viability assay, OVCAR4. The settings on record: for Efficacy: % loss of cell viability at maximum tested concentration. Here is the method:
as §1

The mark [1] stands for this setting: Homo sapiens, Caov-3, 72 h, read-out: Potency [IC50 (µM)].
The mark [2] stands for this setting: Homo sapiens, Caov-3, read-out: % Efficacy (maximum dose).
The mark [3] stands for this setting: Homo sapiens, OVCAR-4, 72 h, read-out: Potency [IC50 (µM)].
[4] abbreviates: Homo sapiens, OVCAR-4, read-out: % Efficacy (maximum dose).

In the case of `C=C(NC(=O)C(=C)NC(=O)c1csc(C2=N[C@@H]3c4csc(n4)[C@H]4NC(=O)c5csc(n5)[C@H]([C@](C)(O)[C@@H](C)O)NC(=O)[C@H]5CSC(=N5)/C(=C/C)NC(=O)[C@H]([C@@H](C)O)NC(=O)c5csc(n5)[C@]3(CC2)NC(=O)[C@H](C)NC(=O)C(=C)NC(=O)[C@H](C)NC(=O)[C@H]([C@@H](C)CC)N[C@@H]2C=Cc3c([C@H](C)O)cc(nc3[C@H]2O)C(=O)O[C@@H]4C)n1)C(N)=O` [Thiostrepton], the Efficacy in the assay with FT282-C11 cells (FT282-C11, Table 4) was 100%; in the assay with CAOV3 cells (CAOV3, Table 4) it was 93%; with OVCAR4 cells (OVCAR4, Table 4), 99%. Further, the half-maximal inhibitory concentration (IC50) came to 730 nM with FT282-C11 cells (Homo sapiens); 0.62 µM in the assay on CAOV3 cells (Homo sapiens, Caov-3); 0.62 µM in the assay with CAOV3 cells (setting [1]); 0.98 µM in the assay on OVCAR4 cells (Homo sapiens, OVCAR-4); 0.98 µM with OVCAR4 cells (setting [3]). Moreover, the “Fold HGSOC cell selectivity” value in the assay with FT282-C11 cells was 0.91. Besides, in the assay on HGSOC cells, the “potency and efficacy on HGSOC cell viability, in words” value (shortened to “potency and efficacy”) is “high potency and efficacy”. For the same compound, the Emax with CAOV3 cells (setting [2]) turned out to be 93%; in the assay with OVCAR4 cells (setting [4]), 99%.
Regarding `c1ccc(Nc2cc3ccccc3c3ccccc23)cc1` [N-phenylphenanthren-9-amine (NP9), N-phenylphenanthren-9-amine], the “potency and efficacy” value with HGSOC cells was “low potency”. In addition, the half-maximal inhibitory concentration (IC50) in the assay with CAOV3 cells (setting [1]) amounted to 23 µM; in the assay with OVCAR4 cells (setting [3]), 39 µM. In addition, the Emax was found to be 85% with CAOV3 cells (setting [2]) and 100% in the assay with OVCAR4 cells (setting [4]).
Take `CC[C@@]1([C@@H]2O[C@@H]([C@H]3O[C@@](O)(CO)[C@H](C)C[C@@H]3C)C[C@@H]2C)CC[C@H]([C@]2(C)CC[C@]3(C[C@H](O)[C@@H](C)[C@@H]([C@@H](C)[C@@H](OC)[C@H](C)C(=O)O)O3)O2)O1` [Monensin, monensin]: the “potency and efficacy” value in the assay with HGSOC cells is listed as “high potency but low efficacy in one cell line (OVCAR4)”. For the same compound, the Emax came to 100% in the assay with CAOV3 cells (Homo sapiens, Caov-3, CAOV3, % loss of cell viability at the maximum tested drug concentration (printed in parentheses in the cell), Table 3, read-out: % Efficacy (maximum dose)) and 52% with OVCAR4 cells (Homo sapiens, OVCAR-4, OVCAR4, % loss of cell viability at the maximum tested drug concentration (printed in parentheses in the cell), Table 3, read-out: % Efficacy (maximum dose)). Also, the half-maximal inhibitory concentration (IC50) was 0.1 µM in the assay with CAOV3 cells (Homo sapiens, Caov-3, CAOV3, cell viability, CyQuant, 72 h, Table 3, read-out: Potency [IC50 (µM)]) and 0.024 µM in the assay with OVCAR4 cells (Homo sapiens, OVCAR-4, OVCAR4, cell viability, CyQuant, 72 h, Table 3, read-out: Potency [IC50 (µM)]).
Turning to `Nc1c(C(=O)Nc2ccc(F)cc2)sc2nc(-c3cccs3)cc(C(F)(F)F)c12` [FDI-6], the Efficacy in the assay on FT282-C11 cells (FT282-C11, Table 4) came to 76%; in the assay with CAOV3 cells (CAOV3, Table 4), 61%; with OVCAR4 cells (OVCAR4, Table 4) it was 61%. Moreover, the half-inhibitory concentration (IC50) turned out to be 11000 nM in the assay on FT282-C11 cells (FT282-C11, CyQuant, Table 4, read-out: IC50); 9.1 µM with CAOV3 cells (CAOV3, CyQuant, Table 4, read-out: IC50); 9.1 µM with CAOV3 cells (CAOV3, cell viability, CyQuant, 72 h, Table 3, read-out: Potency [IC50 (µM)]); 4.7 µM in the assay on OVCAR4 cells (OVCAR4, CyQuant, Table 4, read-out: IC50); 4.7 µM with OVCAR4 cells (OVCAR4, cell viability, CyQuant, 72 h, Table 3, read-out: Potency [IC50 (µM)]). The “Fold HGSOC cell selectivity” value in the assay on FT282-C11 cells was 1.6. In addition, the “potency and efficacy” value in the assay on HGSOC cells was “low potency”. The “% Efficacy (maximum dose)” value with CAOV3 cells (CAOV3, % loss of cell viability at the maximum tested drug concentration (printed in parentheses in the cell), Table 3) is recorded as 61% (20 μM); in the assay on OVCAR4 cells (OVCAR4, % loss of cell viability at the maximum tested drug concentration (printed in parentheses in the cell), Table 3), 61% (20 μM).
